According to PMC13493820, “Versatile Glycan Probes for Multiplatform Investigation of Glycan Interactions with Proteins, Viruses, and Cells” (Nature Communications, 2026):

Target: T1, rhesus Langerin (Macaca mulatta, UniProt F7HNH2)
T1 construct: gene CD207; array protein; construct only in supplement
Test: glycan microarray
Assay type: binding
Conditions: labelled compound (FAA probe, immobilised)

T1 sequence (F7HNH2 1-328): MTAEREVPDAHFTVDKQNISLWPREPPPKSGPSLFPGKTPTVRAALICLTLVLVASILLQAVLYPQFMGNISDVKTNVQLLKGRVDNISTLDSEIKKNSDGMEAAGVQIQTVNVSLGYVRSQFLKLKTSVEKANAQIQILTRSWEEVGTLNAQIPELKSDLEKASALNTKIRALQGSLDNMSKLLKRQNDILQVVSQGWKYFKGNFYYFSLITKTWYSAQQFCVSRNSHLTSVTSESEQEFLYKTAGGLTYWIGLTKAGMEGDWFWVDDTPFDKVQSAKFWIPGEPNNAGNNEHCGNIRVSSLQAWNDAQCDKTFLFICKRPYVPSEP

With `CC(=O)N[C@H]1[C@H](O[C@H]2[C@H](O)[C@@H](NC(C)=O)C(O)O[C@@H]2CO)O[C@H](CO)[C@@H](O[C@@H]2O[C@H](CO[C@H]3O[C@H](CO[C@H]4O[C@H](CO)[C@@H](O)[C@H](O)[C@@H]4O[C@H]4O[C@H](CO)[C@@H](O)[C@H](O)[C@@H]4O)[C@@H](O)[C@H](O[C@H]4O[C@H](CO)[C@@H](O)[C@H](O)[C@@H]4O[C@H]4O[C@H](CO)[C@@H](O)[C@H](O)[C@@H]4O)[C@@H]3O)[C@@H](O)[C@H](O[C@H]3O[C@H](CO)[C@@H](O)[C@H](O)[C@@H]3O[C@H]3O[C@H](CO)[C@@H](O)[C@H](O)[C@@H]3O[C@H]3O[C@H](CO)[C@@H](O)[C@H](O)[C@@H]3O)[C@@H]2O)[C@@H]1O` (stereo partly shown) [Man9GlcNAc2] the glycan microarray was “rhesus Langerin bound almost exclusively to Man9GlcNAc2”.
